# Results from patent US9884089B2, “BPI and its congeners as radiation mitigators and radiation protectors” (Dana-Farber Cancer Institute, Inc., priority 2011, dated 2018).
# Marks after values point to notes of the source that are not given here.
# Key:
# [1] = test system: BALB/c mice after 7 Gy TBI; test: In vivo radiation mitigation: survival after 7 Gy TBI; parameters: species or system mouse; details: 7 Gy TBI (LD95/30), treatment initiated 24 hours after irradiation; Mantel-Cox log-rank
# Description: (§1) Male BALB/c mice (Stock #028, Charles River, Wilmington, Mass.) were acclimated prior to irradiation at age 12 weeks. Studies were conducted in accordance with Dana-Farber Cancer Institute's ACUC-approved policies and protocols. Mice were placed into a Rad Disk™ rodent microisolation irradiation cage (Braintree Scientific, Braintree, Mass.) and administered a single 7 Gy dose by a Gammacell® 40Exactor (Best Theratronics, Ottawa, Ontario) cesium source irradiator. […]
# For the human HSCT study, samples with undetectable analytes were assigned a value at half the lower limit of detection. For ANC, PLT, BPI, TLR4 and IL-6, data were analyzed after logarithmic transformation, as this yielded distributions that were more approximately normal. […] Comparisons between subjects with or without fever were evaluated using the Mann-Whitney test. When assessing correlations between different parameters, within-subject correlations were calculated using the Spearman correlation coefficient and data from multiple time-points. The calculated coefficients were averaged over the different subjects and significance tested with the signed rank test. […] Two tailed t tests (Mann-Whitney) are performed throughout except for citrulline data in which the data were analyzed by 1-sample t test as compared to theoretical mean of 100% and for hematologic analyses (Table 1) in which unpaired t tests were performed. […]
# [2] = test system: BALB/c mice after 7 Gy TBI; test: Peripheral blood counts after TBI (CBC, Hemavet); type: in vivo, mouse; details: median; for WBC: treatment started 24 h after irradiation
# Description: Male BALB/c mice (Stock #028, Charles River, Wilmington, Mass.) were acclimated prior to irradiation at age 12 weeks. Studies were conducted in accordance with Dana-Farber Cancer Institute's ACUC-approved policies and protocols. Mice were placed into a Rad Disk™ rodent microisolation irradiation cage (Braintree Scientific, Braintree, Mass.) and administered a single 7 Gy dose by a Gammacell® 40Exactor (Best Theratronics, Ottawa, Ontario) cesium source irradiator. […] Moribund mice were euthanized via CO, asphyxiation. At scheduled time points, mice were sacrificed humanely via isoflurane anesthetic overdose (IsoFlo®-Abbott Labs, Abbott Park, Ill.).
# CBCs were performed on a Hemavet 950 FS hematology analyzer (Drew Scientific, Waterbury, Conn.) with EDTA-anticoagulated (Becton-Dickinson, Franklin Lakes, N.J.) cardiac blood. Plasma was obtained by mixing blood with pyrogen-free heparin (APP Pharmaceutical, Schaumburg, Ill.), in pyrogen-free Eppendorf tubes (USA Scientific) and centrifugation at 14,000 rpm for 10 minutes. Single use aliquots were stored at −80° C. In some studies, femurs and tibiae from one leg/animal were dissected, fixed for 24 hours in 10% neutral buffered formalin (Fisher Scientific, Pittsburgh, Pa.), and processed, including coronal sectioning and hematoxylin and eosin (H&E) staining (Specialized Histopathology Services-Longwood, Boston, Mass.). […] Red blood cells were lysed with hypotonic lysing buffer (Sigma).
# [3] = test system: BM of BALB/c mice after 7 Gy TBI; test: Femoral BM cellularity by histopathology; type: in vivo, mouse; details: D19 after 7 Gy
# Description: as §1
# A Board-certified hematopathologist (JK) assessed femoral BM cellularity on decalcified, formalin fixed, H&E stained paraffin-fixed sections using an Olympus BX51 microscope and an Olympus DP71 camera with DP Capture software. For each animal, 2 slides with 2 fields/slide were scored for the percent of BM space occupied by hematopoietic cells. […]
compound,measurement,setting,value
"CCN1CCN(c2cc3c(cc2F)c(=O)c(C(=O)O)cn3C2CC2)CC1 [ENR, enrofloxacin]",D30 survival,[1],some survival benefit
same,WBC,[2]; D15 after 7 Gy TBI,0.24 ▴ K/μL
same,Hb,[2]; D15 after 7 Gy TBI,8.80 ▴ ▪ g/dL
same,Monocytes,[2]; D15 after 7 Gy TBI,0 ▴ ● K/μL
same,Neutrophils,[2]; D15 after 7 Gy TBI,0 ▴ ● K/μL
same,PLT,[2]; D15 after 7 Gy TBI,196 ▴ K/μL
same,WBC,[2]; D19 after 7 Gy TBI,0.21 ▴ K/μL
same,Hb,[2]; D19 after 7 Gy TBI,8.35 ▴ ▪ g/dL
same,Monocytes,[2]; D19 after 7 Gy TBI,0 ▴ ● ▪ K/μL
same,Neutrophils,[2]; D19 after 7 Gy TBI,0 ▴ ● ▪ K/μL
same,PLT,[2]; D19 after 7 Gy TBI,250.5 ▴ K/μL
same,WBC,[2]; D30 after 7 Gy TBI,1.84 ▴ ● K/μL
same,Hb,[2]; D30 after 7 Gy TBI,13.1 ▴ g/dL
same,Monocytes,[2]; D30 after 7 Gy TBI,0.14 ● K/μL
same,Neutrophils,[2]; D30 after 7 Gy TBI,0.55 ● K/μL
same,PLT,[2]; D30 after 7 Gy TBI,713.5 ▴ K/μL
same,BM cellularity,[3],< 5%
